Assay results as given in the supplement of paper PMC11208160.

Test: recombinant barcode read abundance after kanamycin selection (control-corrected) (log10(CPM+1)); higher = more efficient recombination; sequences stand for … in AGTGCAGAGAAAATCGGCCAGTTTTCTCTGCCTGCAGTCCGCATGCCGT…ATTTATGCAGCGGACTGCCTTTCTCCCAAAGTGATAAACCGGACAGTATCATGGACCGGTTTTCCCGGTAATCCGTATTTGCAAGGTTGGTTTCACT; site = the 11-nt target
How it was run: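 This pooled E. coli screen matched targets with IS621 bridge RNA target-binding loops. Plating was done in duplicate on chloramphenicol/ampicillin LB agar as a control and on chloramphenicol/ampicillin/kanamycin plus 0.1 mM IPTG. Recombination efficiency reflects barcode counts at recombinant junctions as counts per million, averaged and control-corrected. The figures are log10(CPM+1).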

Sequence	recombinant barcode read abundance (log10)
GTCGCCCATTGGGTTCTAACCTGTTGCTAAG [GTCGCCCCTTA_LTGcore_AT_RTGcore_CT] (site GTCGCCCCTTA) (LTG core: AT, RTG core: CT)	0.926
GTCGCCCCCTGGGTTCTAACCTGTTGCTAGG [GTCGCCCCTTA_LTGcore_CC_RTGcore_CC] (site GTCGCCCCTTA) (LTG core: CC, RTG core: CC)	0.416
GTCGCCCCTTGGGTTCTAACCTGTTGCTAAA [GTCGCCCCTTA_LTGcore_CT_RTGcore_TT] (site GTCGCCCCTTA) (LTG core: CT, RTG core: TT)	0.194
GTCGCCCCTTGGGTTCTAACCTGTTGCTACA [GTCGCCCCTTA_LTGcore_CT_RTGcore_TG] (site GTCGCCCCTTA) (LTG core: CT, RTG core: TG)	0.151
GTCGCCCCTTGGGTTCTAACCTGTTGCTACC [GTCGCCCCTTA_LTGcore_CT_RTGcore_GG] (site GTCGCCCCTTA) (LTG core: CT, RTG core: GG)	0.487
GTCGCCCCTTGGGTTCTAACCTGTTGCTACT [GTCGCCCCTTA_LTGcore_CT_RTGcore_AG] (site GTCGCCCCTTA) (LTG core: CT, RTG core: AG)	0.19
GTCGCCCCTTGGGTTCTAACCTGTTGCTAGG [GTCGCCCCTTA_LTGcore_CT_RTGcore_CC] (site GTCGCCCCTTA) (LTG core: CT, RTG core: CC)	0.238
GTCGCCCGCTGGGTTCTAACCTGTTGCTAAG [GTCGCCCCTTA_LTGcore_GC_RTGcore_CT] (site GTCGCCCCTTA) (LTG core: GC, RTG core: CT)	0.224
GTCGCCCTGTGGGTTCTAACCTGTTGCTACA [GTCGCCCCTTA_LTGcore_TG_RTGcore_TG] (site GTCGCCCCTTA) (LTG core: TG, RTG core: TG)	0.51
TAAGAATAGTGGGTTCTAACCTGTTGCCTAG [TAAGAATCTAG_LTGcore_AG_RTGcore_CT] (site TAAGAATCTAG) (LTG core: AG, RTG core: CT)	0.079
TAAGAATAGTGGGTTCTAACCTGTTGCCTCT [TAAGAATCTAG_LTGcore_AG_RTGcore_AG] (site TAAGAATCTAG) (LTG core: AG, RTG core: AG)	0.0922
TAAGAATCTTGGGTTCTAACCTGTTGCCTAA [TAAGAATCTAG_LTGcore_CT_RTGcore_TT] (site TAAGAATCTAG) (LTG core: CT, RTG core: TT)	0.175
TAAGAATCTTGGGTTCTAACCTGTTGCCTGC [TAAGAATCTAG_LTGcore_CT_RTGcore_GC] (site TAAGAATCTAG) (LTG core: CT, RTG core: GC)	0.359
TAAGAATGCTGGGTTCTAACCTGTTGCCTAG [TAAGAATCTAG_LTGcore_GC_RTGcore_CT] (site TAAGAATCTAG) (LTG core: GC, RTG core: CT)	0.216
TAAGAATGGTGGGTTCTAACCTGTTGCCTAG [TAAGAATCTAG_LTGcore_GG_RTGcore_CT] (site TAAGAATCTAG) (LTG core: GG, RTG core: CT)	0.0162
TAAGAATTATGGGTTCTAACCTGTTGCCTAG [TAAGAATCTAG_LTGcore_TA_RTGcore_CT] (site TAAGAATCTAG) (LTG core: TA, RTG core: CT)	0
TAAGAATTCTGGGTTCTAACCTGTTGCCTAG [TAAGAATCTAG_LTGcore_TC_RTGcore_CT] (site TAAGAATCTAG) (LTG core: TC, RTG core: CT)	0.0977
TAAGAATTTTGGGTTCTAACCTGTTGCCTAG [TAAGAATCTAG_LTGcore_TT_RTGcore_CT] (site TAAGAATCTAG) (LTG core: TT, RTG core: CT)	0.0485
TAGAGGGAATGGGTTCTAACCTGTTGCGGAG [TAGAGGGCTCC_LTGcore_AA_RTGcore_CT] (site TAGAGGGCTCC) (LTG core: AA, RTG core: CT)	0.247
